Measurements taken from patent publication US20250296938A1, “Compounds that Interact with the Ras Superfamily for the Treatment of Cancers, Inflammatory Diseases, Rasopathies, and Fibrotic Disease” (SHY Therapeutics, LLC, priority 2018, published 2025).
Like-named read-outs stand apart in the source and are kept apart here.

Test system: MIA PaCa-2 pancreatic cancer cell line
Experiment: Cell proliferation assay (DAPI)
Assay type: cell-based
Conditions: Homo sapiens; for inhibition at 10 µM: read-out: % Inhibition of cell proliferation, MIA PaCa-2 % inh
Experimental: Cell lines: Human NSCLC cells NCI-H1975 and NCI-H1299, and tumor-derived pancreatic cancer cell lines Panc-1, MIA-PACA2, and BxPC3, were all purchased from American Type Culture Collection and grown in complete RPMI medium (BxPC3, NCI-H1975 and NCI-H1299) or DMEM-High Glucose (Panc1 and MIA-PaCa-2), supplemented with penicillin (100 U/mL), streptomycin (100 μg/mL), and 10% heat-inactivated FBS at 37° C. in a humidified incubator with 5% CO2.
Method: Cells were plated at 2000 to 5000 cells/well density in 96-wells plate and cultured ON. Small molecules to be tested were added to the cells in the final concentration of 10 µM in the presence of 0.3% DMSO and 10% FBS, and incubated for 2-4 days at 37° C. in a humidified incubator with 5% CO2. For IC50 value determination, serial dilutions of compounds were added to cells under the same conditions.
Assay: At the end of the incubation period, cell cultures were fixed with a 50-50 mixture (v/v) acetone-methanol for 10 minutes at −20° C., followed by rehydration in PBS for 10 minutes at room temperature. DNA total content was determined by staining cells with DAPI (1 ug/ml) in PBS for 10 minutes at room temperature, followed by 3 washes with PBS. After staining, DAPI fluorescence was recorded (358 nm excitation/461 nm emission) with the 96-well plate reader Molecular Devices Spectramax M3; degree of small molecule-dependent proliferation inhibition was calculated from raw data.

IC50 (MIA PaCa-2 (Table 5A)) | SMILES | inhibition at 10 µM (2-4 days, MIA PaCa-2) | inhibition at 10 µM (MIA PaCa-2 (Table 5A)) | other results
 | COc1ccc(-c2c(-c3cccc(OC)c3F)sc3nc(-c4nccn4C)nc(N4CCC(OC)C4)c23)cc1 (stereo not drawn) [drawing 584] | 76 to 100% |  | 
 | COCCN(C)C(=O)c1nc(-c2ccccn2)nc(O)c1O [drawing 602] | 0% |  | 
 | CN(Cc1ccccc1)Cc1nc(-c2ccccn2)nc(O)c1O | 0% |  | 
 | COCCc1ccc(Oc2nc(-c3ccccn3)nc(O)c2OC)cc1 [drawing 592] | 76 to 100% |  | 
 | COc1ccc(Oc2nc(-c3ccccn3)nc(O)c2OC)cc1 [drawing 591] | 26 to 50% |  | 
 | O=C(c1nc(-c2ccccn2)nc(O)c1O)N1CCCC1 [drawing 598] | 1 to 25% |  | 
 | COC1CCN(c2nc(-c3nccn3C)nc3sc(Br)c(-c4ccccc4)c23)C1 (stereo not drawn) [drawing 583] | 76 to 100% |  | 
> 1 µM | COCCNC(=O)c1sc2nc(-c3nccn3C)nc(N[C@H]3C[C@@H](OC)C3)c2c1-c1ccccc1 [drawing 656] |  | 26 to 50% | 
> 1 µM | CO[C@H]1CC[C@@H](Nc2nc(-c3nccn3C)nc3sc(C(=O)N4CCCC4)c(-c4ccccc4)c23)C1 [drawing 661] |  | 76 to 100% | 
0.75 to 1 µM | COC1CCC(Nc2nc(-c3nccn3C)nc3sc(-c4cccc5[nH]ncc45)c(-c4ccccc4)c23)C1 (stereo not drawn) [drawing 623] |  | 76 to 100% | 
 | Oc1nc(-c2cn(-c3ccccc3)cn2)nc2c(-c3ccccn3)csc12 [drawing 540] | 76 to 100% |  | 
0.75 to 1 µM | COc1cccc(-c2sc3nc(-c4nccn4C)nc(NC4CCC(OC)C4)c3c2-c2ccccc2)c1F (stereo not drawn) [drawing 618] |  | 76 to 100% | 
 | O=C(NC1CCCC1)c1nc(-c2ccccn2)nc(O)c1O [drawing 599] | 26 to 50% |  | 
 | COCCNc1nc(-c2cn(C)cn2)nc2sc(-c3cccc(OC)c3Cl)c(-c3ccc(OC)cc3)c12 [drawing 565] | 76 to 100% |  | 
0.75 to 1 µM | CO[C@H]1CC[C@@H](Nc2nc(-c3nccn3C)nc3sc(-c4cccc5[nH]ncc45)c(-c4ccccc4)c23)C1 [drawing 624] |  | 76 to 100% | 
 | COC1CCN(c2nc(-c3nccn3C)nc3sc(-c4ccc(CO)cc4)c(-c4ccccc4)c23)C1 (stereo not drawn) [drawing 578] | 76 to 100% |  | 
> 1 µM | Cc1c(-c2ccn(C)n2)sc2nc(-c3nccn3C)nc(NCCCS(C)(=O)=O)c12 [drawing 651] |  | 0% | 
 | COCC1CN(c2nc(-c3nccn3C)nc3sc(-c4cccc(OC)c4F)c(-c4ccc(OC)cc4)c23)C1 [drawing 585] | 76 to 100% |  | 
 | COCCNc1nc(-c2nccn2C)nc2sc(-c3cc(OC)ccc3Cl)c(-c3ccccc3)c12 [drawing 568] | 76 to 100% |  | IC50 (MIA PaCa-2): > 1 µM
> 1 µM | Cc1c(-c2ccn(C)n2)sc2nc(-c3nccn3C)nc(NCCOC(=O)N(C)C)c12 [drawing 653] |  | 26 to 50% | 
 | COc1nc(-c2ccccn2)nc(Nc2cnn(C)c2)c1OC [drawing 611] | 1 to 25% |  | 
> 1 µM | CO[C@H]1CC[C@@H](Nc2nc(-c3nccn3C)nc(C(=O)N3CCc4c(O)cccc4C3)c2C)C1 [drawing 636] |  | 1 to 25% | 
 | COCCn1cc(Nc2nc(-c3ccccn3)nc(OC)c2OC)cn1 [drawing 612] | 26 to 50% |  | 
 | COc1ccc(Cn2cnc(-c3nc(O)c4scc(-c5ccccn5)c4n3)c2)cc1 [drawing 541] | 76 to 100% |  | 
